{"source": "paper PMC5776679", "about": "(Journal of medicinal chemistry, 2016)", "key": {"[1]": {"test_system": "HBV", "conditions": "therapeutic index at the EC50, HepG2"}, "[2]": {"test_system": "HIV-1", "conditions": "for EC50: read-out: EC50 (PBMCs) HIV-1"}, "[3]": {"conditions": "monkeys; cited from earlier work"}, "[4]": {"conditions": "rats; cited from earlier work"}, "[5]": {"test_system": "HepG2", "test": "Cytotoxicity in uninfected HepG2 cells", "conditions": "read-out: CC50 (HepG2), concentration required to reduce the viability of uninfected cells by 50%, triplicate"}, "[6]": {"test_system": "PBMCs", "test": "Cytotoxicity in uninfected PBMCs", "conditions": "read-out: CC50 (PBMCs), concentration required to reduce the viability of uninfected cells by 50%, triplicate"}, "[7]": {"test_system": "HepG2", "conditions": "human"}, "[8]": {"test": "in vitro", "conditions": "human"}, "[9]": {"conditions": "phase I, preliminary data on Chimerix's website; cited from earlier work"}, "[10]": {"conditions": "clinical trials; cited from earlier work"}, "[11]": {"test": "Stability in PBS", "conditions": "all examined media except human serum"}, "[12]": {"conditions": "therapeutic index at the EC50, PBMCs"}}, "note": "Like-named read-outs stand apart in the source and are kept apart here."}
{"compound": "CCCCCCCCCCCCCCCCCCSSCCOP(=O)(O)CO[C@H](C)Cn1cnc2c(N)ncnc21.N", "note": "[12e, 2-(Octadecyldisulfanyl)ethyl Hydrogen ((((R)-1-(6-Amino-9H-purin-9-yl)propan-2-yl)oxy)methyl)phosphonate]", "values": [{"measurement": "TI (CC50/EC50) HBV", "setting": "[1]", "result": ">50"}]}
{"compound": "C[C@H](Cn1cnc2c(N)ncnc21)OCP(=O)(O)OCCS", "note": "[compound 9, 2-Mercaptoethyl Hydrogen ((((R)-1-(6-Amino-9H-purin-9-yl)-propan-2yl)oxy)methyl)phosphonate]", "values": [{"measurement": "TI (CC50/EC50) HIV-1", "setting": "[2]", "result": ">5.38"}, {"measurement": "TI (CC50/EC50) HBV", "setting": "[1]", "result": ">2.4"}]}
{"compound": "CCCCCCCCCCCCSSCCOP(=O)(O)CO[C@H](C)Cn1cnc2c(N)ncnc21.N", "note": "[12b, 2-(Dodecyldisulfanyl)ethyl Hydrogen ((((R)-1-(6-Amino-9H-purin-9-yl)propan-2-yl)oxy)methyl)phosphonate]", "values": [{"measurement": "TI (CC50/EC50) HBV", "setting": "[1]", "result": ">30"}]}
{"compound": "CCCCCCCCCCSSCCOP(=O)(O)CO[C@H](C)Cn1cnc2c(N)ncnc21.N", "note": "[12a, 2-(Decyldisulfanyl)ethyl Hydrogen ((((R)-1-(6-Amino-9H-purin-9-yl)propan-2-yl)oxy)methyl)phosphonate]", "values": [{"measurement": "TI (CC50/EC50) HIV-1", "setting": "[2]; [12]", "result": ">590"}, {"measurement": "TI (CC50/EC50) HBV", "setting": "[1]", "result": ">1"}]}
{"compound": "Nc1ncnc2c1ncn2CCOCP(=O)(O)O", "note": "[adefovir]", "values": [{"measurement": "bioavailability", "setting": "[3]", "result": "< 1", "unit": "%"}, {"measurement": "bioavailability", "setting": "[4]", "result": "8–11%"}]}
{"compound": "2-(Tetradecyldisulfanyl)ethyl (2-(Tetradecylsulfinothioyl)ethyl) ((((R)-1-(6-Amino-9H-purin-9-yl)propan-2-yl)oxy)methyl)-phosphonate [13c]", "values": [{"measurement": "TI (CC50/EC50) HIV-1", "setting": "[2]", "result": ">529"}, {"measurement": "EC50", "setting": "[2]", "result": 0.189, "unit": "µM"}, {"measurement": "CC50", "setting": "[5]", "result": "> 100", "unit": "µM"}, {"measurement": "CC50", "setting": "[6]", "result": "> 100", "unit": "µM"}, {"measurement": "TI (CC50/EC50) HBV", "setting": "[1]", "result": ">1"}]}
{"compound": "CC(C)OC(=O)OCOP(=O)(CO[C@H](C)Cn1cnc2c(N)ncnc21)OCOC(=O)OC(C)C.O=C(O)/C=C/C(=O)O", "note": "[TDF, tenofovir disoproxil fumarate]", "values": [{"measurement": "CC50", "setting": "[7]", "result": 64.5, "unit": "µM"}, {"measurement": "CC50", "setting": "[8]", "result": 29.2, "unit": "µM"}]}
{"compound": "CCCCCCCCCCCCCCCCOCCCOP(=O)(O)CO[C@H](C)Cn1cnc2c(N)ncnc21", "note": "[compound 1, hexadecyloxypropyl-tenofovir, reference compound]", "values": [{"measurement": "TI (CC50/EC50) HIV-1", "setting": "[2]", "result": ">5000"}, {"measurement": "tolerability", "setting": "[9]", "result": "well-tolerated"}]}
{"compound": "C[C@H](Cn1cnc2c(N)ncnc21)OCP(=O)(O)O", "note": "[TFV, Tenofovir, reference compound]", "values": [{"measurement": "TI (CC50/EC50) HIV-1", "setting": "[2]", "result": ">300"}]}
{"compound": "2-(Hexadecyldisulfanyl)ethyl Octyl ((((R)-1-(6-Amino-9H-purin-9-yl)propan-2-yl)oxy)methyl)phosphonate [compound 22]", "values": [{"measurement": "TI (CC50/EC50) HIV-1", "setting": "[2]", "result": ">50"}, {"measurement": "EC50", "setting": "[2]", "result": 0.911, "unit": "µM"}]}
{"compound": "2-(Decyldisulfanyl)ethyl (2-(Decylsulfinothioyl)ethyl) ((((R)-1-(6-Amino-9H-purin-9-yl)propan-2-yl)oxy)methyl)phosphonate [13a]", "values": [{"measurement": "TI (CC50/EC50) HIV-1", "setting": "[2]", "result": ">287"}, {"measurement": "EC50", "setting": "[2]", "result": 0.349, "unit": "µM"}, {"measurement": "CC50", "setting": "[5]", "result": "> 100", "unit": "µM"}, {"measurement": "CC50", "setting": "[6]", "result": "> 100", "unit": "µM"}, {"measurement": "TI (CC50/EC50) HBV", "setting": "[1]", "result": ">1"}]}
{"compound": "2-(Dodecyldisulfanyl)ethyl (2-(Dodecylsulfinothioyl)ethyl) ((((R)-1-(6-Amino-9H-purin-9-yl)propan-2-yl)oxy)methyl)phosphonate [13b]", "values": [{"measurement": "TI (CC50/EC50) HIV-1", "setting": "[2]", "result": ">85.0"}, {"measurement": "EC50", "setting": "[2]", "result": 1.18, "unit": "µM"}, {"measurement": "CC50", "setting": "[5]", "result": "> 100", "unit": "µM"}, {"measurement": "CC50", "setting": "[6]", "result": "> 100", "unit": "µM"}, {"measurement": "TI (CC50/EC50) HBV", "setting": "[1]", "result": ">1"}]}
{"compound": "C[C@H](Cn1cnc2c(N)ncnc21)OCP(=O)(O)OCCSSCCO", "note": "[DTE–TFV, 2-((2-Hydroxyethyl)disulfanyl)ethyl Hydrogen ((((R)-1-(6-Amino-9H-purin-9-yl)propan-2-yl)oxy)methyl)phosphonate]", "values": [{"measurement": "TI (CC50/EC50) HIV-1", "setting": "[2]", "result": ">62.1"}, {"measurement": "TI (CC50/EC50) HBV", "setting": "[1]", "result": ">8.6"}]}
{"compound": "2-(Octadecyldisulfanyl)ethyl (2-(Octadecylsulfinothioyl)ethyl) ((((R)-1-(6-Amino-9H-purin-9-yl)propan-2-yl)oxy)methyl)-phosphonate [13e]", "values": [{"measurement": "TI (CC50/EC50) HIV-1", "setting": "[2]", "result": ">76"}, {"measurement": "EC50", "setting": "[2]", "result": 0.331, "unit": "µM"}, {"measurement": "CC50", "setting": "[5]", "result": "> 25", "unit": "µM"}, {"measurement": "CC50", "setting": "[6]", "result": "> 25", "unit": "µM"}, {"measurement": "TI (CC50/EC50) HBV", "setting": "[1]", "result": ">1"}]}
{"compound": "CC(C)OC(=O)[C@H](C)N[P@](=O)(CO[C@H](C)Cn1cnc2c(N)ncnc21)Oc1ccccc1", "note": "[TAF, tenofovir-alafenamide]", "values": [{"measurement": "nephrotoxicity", "setting": "[10]", "result": "little to no nephrotoxicity"}]}
{"compound": "CCCCCCCCCCCCCCSSCCOP(=O)(O)CO[C@H](C)Cn1cnc2c(N)ncnc21.N", "note": "[12c, 2-(Tetradecyldisulfanyl)ethyl Hydrogen ((((R)-1-(6-Amino-9H-purin-9-yl)propan-2-yl)oxy)methyl)phosphonate]", "values": [{"measurement": "TI (CC50/EC50) HIV-1", "setting": "[2]; [12]", "result": 28000}, {"measurement": "fold stability increase over 12d", "setting": "[11]", "result": "~2", "unit": "fold"}, {"measurement": "TI (CC50/EC50) HBV", "setting": "[1]", "result": ">56"}]}
{"compound": "CCCCCCCCCCCCCCCCSSCCOP(=O)(O)CO[C@H](C)Cn1cnc2c(N)ncnc21.N", "note": "[12d, 2-(Hexadecyldisulfanyl)ethyl Hydrogen ((((R)-1-(6-Amino-9H-purin-9-yl)propan-2-yl)oxy)methyl)phosphonate]", "values": [{"measurement": "TI (CC50/EC50) HBV", "setting": "[1]", "result": ">1200"}]}
{"compound": "2-(Hexadecyldisulfanyl)ethyl (2-(Hexadecylsulfinothioyl)ethyl) ((((R)-1-(6-Amino-9H-purin-9-yl)propan-2-yl)oxy)methyl)-phosphonate [13d]", "values": [{"measurement": "TI (CC50/EC50) HIV-1", "setting": "[2]", "result": 4.0}, {"measurement": "EC50", "setting": "[2]", "result": 6.32, "unit": "µM"}, {"measurement": "CC50", "setting": "[5]", "result": "> 25", "unit": "µM"}, {"measurement": "CC50", "setting": "[6]", "result": "> 25", "unit": "µM"}, {"measurement": "TI (CC50/EC50) HBV", "setting": "[1]", "result": ">1"}]}
